Reference: paper PMC7355430, “Imunofan—RDKVYR Peptide—Stimulates Skin Cell Proliferation and Promotes Tissue Repair” (Molecules, 2020)
Peptide text beside a SMILES is read from it.

Tests used:
[1] = Stability in water; assay type: physicochemical; details: 1 mg/mL in sterile water, 37 °C, 24 h; HPLC Luna C18(2), PDA; 3 independent experiments, n=3 (Figure S1)
Procedure: A stock of IM peptide in sterile water (1 mg/mL) was prepared and divided into 200 µL portions. The sample tubes were stored in an incubator at 37 °C and analysis was performed at various time points (0, 1, 2, 3, 6, and 24 h). The analyses were performed by HPLC using a Luna C18(2) (5 µm, 100 Å 4.6 by 250 mm) column (Phenomenex, Torrance, CA, USA) and monitored by a PDA detector. Then, 0.01% TFA in H2O (A) and 0.01% TFA in 80% ACN in water (B) were used as solvents. A linear gradient of 5–100% B over 60 min and a flow rate of 1 mL/min was applied.
(§1) For calculations, peak areas were compared to a calibration curve calculated by LC solution Software (Shimadzu, Kyoto, Japan).

[2] = Stability in human plasma; assay type: in vitro ADME; details: human plasma (EDTA)
Procedure: A stability test in plasma was performed as previously described. Blood was collected from healthy anonymous donors and EDTA was then used as an anticoagulant. The plasma was aliquoted and incubated with IM peptide for 1, 2, 3, 6, and 24 h at 37 °C, at a final concentration of 300 µM. The analyses were performed by HPLC applying the conditions specified above.
as §1

[3] = molecular target: bovine albumin (Bos taurus, UniProt P02769); test: Affinity test on albumin-Sepharose column; assay type: binding; details: ammonium hydrogen carbonate pH 7.4, 2 h, 25 °C, elution 0.1% TFA, ESI-IT-TOF MS of fractions
Sequence of bovine albumin (P02769 25-607): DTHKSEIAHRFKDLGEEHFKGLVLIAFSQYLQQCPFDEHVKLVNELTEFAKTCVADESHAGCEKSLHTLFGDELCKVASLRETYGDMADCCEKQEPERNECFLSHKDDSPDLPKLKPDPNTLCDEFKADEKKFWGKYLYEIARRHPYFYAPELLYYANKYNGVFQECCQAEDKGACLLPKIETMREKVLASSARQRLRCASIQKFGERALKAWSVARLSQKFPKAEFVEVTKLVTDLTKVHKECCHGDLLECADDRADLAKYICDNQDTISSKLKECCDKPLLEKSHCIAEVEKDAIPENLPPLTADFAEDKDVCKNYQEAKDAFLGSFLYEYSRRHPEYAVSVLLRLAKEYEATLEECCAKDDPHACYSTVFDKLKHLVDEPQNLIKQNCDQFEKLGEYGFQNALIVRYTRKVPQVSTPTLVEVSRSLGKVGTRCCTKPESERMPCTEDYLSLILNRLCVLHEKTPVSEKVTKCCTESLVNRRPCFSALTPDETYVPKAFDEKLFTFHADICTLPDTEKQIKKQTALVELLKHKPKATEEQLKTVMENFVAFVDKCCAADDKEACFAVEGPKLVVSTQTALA
Procedure: Immobilization of protein in a microcolumn, and affinity tests, were performed as described previously by Spodzieja et al.. The IM peptide was added onto an albumin-Sepharose column equilibrated in ammonium hydrogen carbonate, pH 7.4, and incubated for 2 h at 25 °C with gentle shaking. After 2 h, the column was washed with 100 mL of ammonium hydrogen carbonate, collecting the first and last milliliter of the solution (supernatant and last wash fraction). The albumin-peptide complex was dissociated by incubation for 15 min in 0.1% TFA, with gentle shaking. The procedure was repeated twice, and the elution fraction was collected each time. All fractions were lyophilized and analyzed by mass spectrometry (ESI-IT-TOF, Kyoto, Shimadzu Japan).

[4] = tested on: primary cortical neural cultures; test: Neural viability, CellTiterBlue assay; assay type: cell-based, Wistar rat; details: 1, 10, 100, 200 µM, 20 h, 37 °C; CellTiterBlue (Figure S6)
Procedure: Neural viability assessments. Primary cortical neural cultures were obtained from E18.5 Wistar rat embryos. For this purpose, the rat was euthanized in a CO2 chamber. The cortex tissue was immediately excised from the brain, moved to a HBSS medium (diluted 10 × and supplemented with a penicilin/streptomycin mixture), and washed precisely. Afterwards, the tissue was trypsinized for 10 min at 37 °C, and homogenized gently. […] Neural viability was quantitatively examined by CellTiterBlue® (CTB) assay (Promega, G8080) after 20-hour long incubation of the cells at 37 °C in the CO2. […] Fluorescence intensity of the CTB reagent is measured spectrofluorymetrically (560ex/590em) and is proportional to the number of viable cells. No insult sample referred as a 100% viability control and the data from the insulted cells was quantified and presented relatively as mean ± SD. The data was analyzed by a Mann-Whitney test with p-value < 0.05 values considered statistically significant. […]
Influence of Imunofan on neural viability. Influence of Imunofan on neural viability was assessed by exposing the cells to different peptide concentrations (1, 10, 100, 200 µM) for 20 h at 37 °C in a 5% CO2 chamber. […]

[5] = tested on: HaCaT keratinocytes; test: Chemotaxis assay, ThinCert inserts; assay type: cell-based, human; details: 0.1 and 1 µg/mL, 24 h, serum-free; n=12 (Figure S7B)
Procedure: The effect of IM on cell chemotaxis was assessed with ThinCert cell culture inserts (8 μm, Greiner Bio-One, Kremsmünster, Austria). Cells were starved overnight in serum-free high-glucose DMEM and then seeded on inserts placed in a 24-well plate, at a density of 100,000 cells, in serum-free medium. Culture medium with appropriate concentrations of IM was then added to the wells of the plate and incubated for 24 h. The cells were stained with 8 μM Calcein-AM (BD Pharmingen), then migratory cells were detached with typsin-EDTA (Sigma-Aldrich, St. Louis, MO, USA). Detached cells were transferred to another plate and read with a fluorescence plate reader at an excitation wavelength of 485 nm and an emission wavelength of 520 nm.

[6] = tested on: patients; parameters: method as in PMID 18475748; details: subcutaneous injection in patients, response to diphtheria toxoid vaccination; cited from earlier work

With CC(C)[C@H](NC(=O)[C@H](CCCCN)NC(=O)[C@H](CC(=O)O)NC(=O)[C@@H](N)CCCNC(=N)N)C(=O)N[C@@H](Cc1ccc(O)cc1)C(=O)N[C@@H](CCCNC(=N)N)C(=O)O [IM, H-Arg-Asp-Lys-Val-Tyr-Arg-OH] (H-RDKVYR-OH) the “signal from the IM peptide after incubation in water” value [1] was “no reduction of the signal”, the “signal of the IM peptide in plasma after 1 h” value ([2]; 300 µM, 37 °C, 1 h, albumins removed with ethanol and centrifugation, HPLC C18, PDA, n=3 (Figure S1)) was “no longer seen” and the “signal of the IM peptide in plasma at time point 0 h” value ([2]; mixture without incubation, whole sample preparation (ethanol, centrifugation), HPLC (Figure S2)) was “barely any signal of peptide”. The interaction with albumin [3] was “interacted with bovine albumin”, the “toxicity to primary neural cells (viability)” value [4] was “not toxic” and the “inhibition of chemotaxis with respect to the control” value [5] was 10–20%. The “levels of interleukin-6 (IL-6) and tumor necrosis factor (TNF)” value [6] was “decreasing levels”.
